Data published in patent US4559323A, “A41030 Antibiotics” (Eli Lilly and Company, priority 1984, dated 1985).
Where two headings read alike, the source gives them in different places.

Legend:
Assay type in all cases: cell-based
Hemophilus influenzae = assay: Agar-dilution MIC; conditions: Table 18, 24 hours
Bacteroides fragilis = assay: Agar-dilution MIC (anaerobes)
From the text: The agar-dilution procedure described by the International Collaborative study (ICS) group was used to determine the minimum inhibitory concentrations (MIC's).

[1] = system: Fusobacterium necrophorum; assay: Agar-dilution MIC (anaerobes); conditions: Table 14; Fusobacterium necrophorum 6054A
[2] = system: Peptostreptococcus anaerobius; assay: Agar-dilution MIC (anaerobes)
Clostridium difficile = conditions: Table 16
From the text: The A41030 antibiotic factors A, B, C, D, E, F, and G, are also active against a number of strains of Clostridium difficile, as determined by the agar-dilution method.

Measured: MIC

NC1C(=O)NC2Cc3ccc(c(Cl)c3)Oc3cc4cc(c3O)Oc3ccc(cc3Cl)C(O)C3NC(=O)C(NC(=O)C4NC(=O)C(NC2=O)c2cc(O)cc(c2)Oc2cc1ccc2O)c1cc(Cl)c(O)c(c1)-c1c(O)cc(O)cc1C(C(=O)O)NC3=O (stereo not drawn) [A41030 factor A]
128 µg/mL: Bacteroides fragilis; Table 14, Bacteroides fragilis 111
4 µg/mL: Hemophilus influenzae; Haemophilus influenzae 76 | Hemophilus influenzae; Haemophilus influenzae 16836 | Hemophilus influenzae; Haemophilus influenzae C.L.
≤ 0.03 µg/mL: [2]; Table 15, Ps. anaerobius 1418
0.5 µg/mL: [2]; Table 15, Ps. anaerobius 8 | [2]; Table 15, Ps. anaerobius 52 | [2]; Table 15, Ps. anaerobius 59 | [2]; Table 15, Ps. anaerobius 1428 | [2]; Table 15, Ps. anaerobius 1451 | [2]; Table 15, Ps. anaerobius 1477
64 µg/mL: Bacteroides fragilis; Table 12, 24-hour, B. fragilis 2 | Bacteroides fragilis; Table 12, 24-hour, B. fragilis 9 | Bacteroides fragilis; Table 12, 24-hour, B. fragilis 106 | Bacteroides fragilis; Table 12, 24-hour, B. fragilis 110 | Bacteroides fragilis; Table 12, 24-hour, B. fragilis 112 | Bacteroides fragilis; Table 12, 24-hour, B. fragilis 1451 | Bacteroides fragilis; Table 12, 24-hour, B. fragilis 1470 | Bacteroides fragilis; Table 12, 24-hour, B. fragilis 9032 | Bacteroides fragilis; Table 14, Bacteroides fragilis 1936B
≤ 0.25 µg/mL: [2]; Table 14, Peptostreptococcus anaerobius 1428
8 µg/mL: [1]
32 µg/mL: Bacteroides fragilis; Table 12, 24-hour, B. fragilis 103 | Bacteroides fragilis; Table 12, 24-hour, B. fragilis 104 | Bacteroides fragilis; Table 12, 24-hour, B. fragilis 107 | Bacteroides fragilis; Table 12, 24-hour, B. fragilis 108 | Bacteroides fragilis; Table 12, 24-hour, B. fragilis 111 | Bacteroides fragilis; Table 12, 24-hour, B. fragilis 113 | Bacteroides fragilis; Table 12, 24-hour, B. fragilis 1877 | Bacteroides fragilis; Table 14, Bacteroides fragilis 1877
1.0 µg/mL: Clostridium difficile; C. difficile 78 | Clostridium difficile; C. difficile 107B | Clostridium difficile; C. difficile 111F | Clostridium difficile; C. difficile 1153 | Clostridium difficile; C. difficile 2634 | Clostridium difficile; C. difficile 3424-5B | Clostridium difficile; C. difficile 3816 | Clostridium difficile; C. difficile 3950 | Clostridium difficile; C. difficile 6890 | Clostridium difficile; C. difficile 8484 | Clostridium difficile; C. difficile A-194 | Clostridium difficile; C. difficile A-195 | Clostridium difficile; C. difficile A-196 | Clostridium difficile; C. difficile A-279 | Clostridium difficile; C. difficile A-280 | Clostridium difficile; C. difficile A-281 | Clostridium difficile; C. difficile WAL-2112 | Clostridium difficile; C. difficile WAL-3657 | Clostridium difficile; C. difficile WAL-4268
2 µg/mL: Hemophilus influenzae; Haemophilus influenzae 312 | Hemophilus influenzae; Haemophilus influenzae 4842 | Hemophilus influenzae; Haemophilus influenzae Bond | Hemophilus influenzae; Haemophilus influenzae Mx366 | Hemophilus influenzae; Haemophilus influenzae Mx371
